# Earlier results as cited in publication PMC11357446, “Searching for Novel HDAC6/Hsp90 Dual Inhibitors with Anti-Prostate Cancer Activity: In Silico Screening and In Vitro Evaluation” (Pharmaceuticals, 2024).
# Target: HDAC6 (UniProt ID: Q9UBN7)
# Design: method as in ChEMBL [62]
# Conditions: ChEMBL record on recombinant protein; ref ChEMBL [62]; read-out: HDAC6 IC50 (Standard Value); cited from earlier work
row,SMILES,IC50 [µM]
1,O=C(NCc1ccc(CN2CCOCC2)cc1)c1ccc(-c2noc(C(F)(F)F)n2)cc1 [CHEMBL3692580],5.7
2,CC(C)c1nc2ccccc2n1Cc1ccc(C(=O)NO)cc1 [CHEMBL3926575],0.047
3,O=C(NC1CCCCC1O)c1ccc(-c2noc(C(F)(F)F)n2)cc1 (stereo not drawn) [CHEMBL3692597],7.1
4,C[C@H](CN1CCOCC1)NC(=O)c1ccc(-c2noc(C(F)(F)F)n2)cc1F [CHEMBL3692681],3.2
5,O=C(Nc1cccnc1)c1ccc(-c2noc(C(F)(F)F)n2)cc1 [CHEMBL3692584],4.8
6,CC(C)(C)c1cc2ccccc2n1Cc1ccc(C(=O)NO)cc1 [CHEMBL4468860],2
7,CC(C)(C)c1ccc(CN2Cc3ccc(/C=C/C(=O)NO)cc3C2=O)cc1 [CHEMBL247218],0.99
8,O=C(Nc1ccncc1)c1ccc(-c2noc(C(F)(F)F)n2)cc1 [CHEMBL3692583],2.1
9,O=C(Cc1ccc(-c2noc(C(F)(F)F)n2)cc1)N1CCOCC1 [CHEMBL3688148],5.5
10,C[C@H](CN1CCCCC1)NC(=O)c1ccc(-c2noc(C(F)(F)F)n2)cc1F [CHEMBL3692663],3
11,O=C(/C=C/c1ccc2c(c1)C(=O)N(Cc1ccccc1)C2)NO [CHEMBL247217],0.23
12,COc1cc(NC(=O)c2ccc(-c3noc(C(F)(F)F)n3)cc2)ccn1 [CHEMBL3692603],8.3
13,O=C(Nc1ccnc(C(F)(F)F)c1)c1ccc(-c2noc(C(F)(F)F)n2)cc1 [CHEMBL3692610],8.6
14,Cc1cc(NC(=O)c2ccc(-c3noc(C(F)(F)F)n3)cc2)cc(C)n1 [CHEMBL3692604],5.3
15,CC(C)CN1CC(=O)N2Cc3c(c4ccccc4n3Cc3ccc(C(=O)NO)cc3)CC2C1=O (stereo not drawn) [CHEMBL4284297],0.00378
16,O=C(NO)c1ccc(CN2C(=O)CNC(=O)[C@H]2Cc2c[nH]c3ccccc23)cc1 [CHEMBL481719],0.11
17,N#Cc1cc(NC(=O)c2ccc(-c3noc(C(F)(F)F)n3)cc2)ccn1 [CHEMBL3692609],6.1
18,CN1CC(=O)N2Cc3c(c4ccccc4n3Cc3ccc(C(=O)NO)cc3)CC2C1=O (stereo not drawn) [CHEMBL4292944],0.0136
19,C[C@H](CN1CCOCC1)NC(=O)c1ccc(-c2noc(C(F)(F)F)n2)cc1 [CHEMBL3692680],6.7
20,Cc1cc(NC(=O)c2ccc(-c3noc(C(F)(F)F)n3)cc2F)cc(C)n1 [CHEMBL3692624],2.5
21,Cc1c(C)n(Cc2ccc(C(=O)NO)cc2)c2ccccc12 [CHEMBL3971436],0.00408
